System: 996289-038-R-J1-PDC spheroid viability
Assay: Anticancer human tumor 996289-038-R-J1-PDC patient-derived colon adenocarcinoma cell line growth inhibition [PI3K]
Details: spheroids with HUVEC and MSC; for viability, T/C: stronger effect = lower value
Procedure, shortened: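 Spheroid viability read-out. Co-cultures contained the tumor line plus HUVEC and human MSCs. Each agent was paired with a PI3K inhibitor (inavolisib, alpelisib, duvelisib, copanlisib) across half-log dilutions starting at clinical Cmax, or at 10 microM when Cmax was unknown.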

[1] = curve of first compound, second compound 0.00316 µM
[2] = curve of first compound, second compound 0.01 µM
[3] = curve of first compound, second compound 0.0316 µM
[4] = curve of first compound, second compound 0.1 µM
[5] = curve of first compound, second compound 0.316 µM
[6] = curve of first compound, second compound 1 µM
[7] = second compound 0.00316 µM, first compound 0.0316 µM
[8] = second compound 0.00316 µM, first compound 0.1 µM
[9] = second compound 0.00316 µM, first compound 0.316 µM
[10] = second compound 0.00316 µM, first compound 1 µM
[11] = second compound 0.00316 µM, first compound 3.16 µM
[12] = second compound 0.00316 µM, first compound 10 µM
[13] = second compound 0.01 µM, first compound 0.0316 µM
[14] = second compound 0.01 µM, first compound 0.1 µM
[15] = second compound 0.01 µM, first compound 0.316 µM
[16] = second compound 0.01 µM, first compound 1 µM
[17] = second compound 0.01 µM, first compound 3.16 µM
[18] = second compound 0.01 µM, first compound 10 µM
[19] = second compound 0.0316 µM, first compound 0.0316 µM
[20] = second compound 0.0316 µM, first compound 0.1 µM
[21] = second compound 0.0316 µM, first compound 0.316 µM
[22] = second compound 0.0316 µM, first compound 1 µM
[23] = second compound 0.0316 µM, first compound 3.16 µM
[24] = second compound 0.0316 µM, first compound 10 µM
[25] = second compound 0.1 µM, first compound 0.0316 µM
[26] = second compound 0.1 µM, first compound 0.1 µM
[27] = second compound 0.1 µM, first compound 0.316 µM
[28] = second compound 0.1 µM, first compound 1 µM
[29] = second compound 0.1 µM, first compound 3.16 µM
[30] = second compound 0.1 µM, first compound 10 µM
[31] = second compound 0.316 µM, first compound 0.0316 µM
[32] = second compound 0.316 µM, first compound 0.1 µM
[33] = second compound 0.316 µM, first compound 0.316 µM
[34] = second compound 0.316 µM, first compound 1 µM
[35] = second compound 0.316 µM, first compound 3.16 µM
[36] = second compound 0.316 µM, first compound 10 µM
[37] = second compound 1 µM, first compound 0.0316 µM
[38] = second compound 1 µM, first compound 0.1 µM
[39] = second compound 1 µM, first compound 0.316 µM
[40] = second compound 1 µM, first compound 1 µM
[41] = second compound 1 µM, first compound 3.16 µM
[42] = second compound 1 µM, first compound 10 µM
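Note: spheroids exposed to compounds for seven days before viability read.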
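Throughout, for viability, T/C: luminescence used as a proxy for viable cell amount; percent viability relative to DMSO vehicle control as 100%.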

Question: Which IC50 [1] does the source give for CC1(C)CCC(CN2CCN(c3ccc(C(=O)NS(=O)(=O)c4ccc(NCC5CCOCC5)c([N+](=O)[O-])c4)c(Oc4cnc5[nH]ccc5c4)c3)CC2)=C(c2ccc(Cl)cc2)C1 + CC(Nc1ccc2c(c1)OCCn1cc(N3C(=O)OCC3C(F)F)nc1-2)C(N)=O here?
Answer: 8.46 µM

Question: And the IC50 [2]?
Answer: 8.25 µM

Question: And the IC50 [3]?
Answer: 6.53 µM

Question: And the IC50 [4]?
Answer: 6.52 µM

Question: And the IC50 [5]?
Answer: 4.81 µM

Question: And the IC50 [6]?
Answer: 4.21 µM

Question: And the viability, T/C [7]?
Answer: 83.7%

Question: What about the viability, T/C [8] of the same molecule?
Answer: 77.4%

Question: What about the viability, T/C [9] of the same molecule?
Answer: 95.8%

Question: And the viability, T/C [10]?
Answer: 112%

Question: What about the viability, T/C [11] of the same molecule?
Answer: 93.5%

Question: And the viability, T/C [12]?
Answer: 42.7%

Question: And the viability, T/C [13]?
Answer: 92.3%

Question: What about the viability, T/C [14] of the same molecule?
Answer: 86.7%

Question: And the viability, T/C [15]?
Answer: 87.4%

Question: What about the viability, T/C [16] of the same molecule?
Answer: 111%

Question: What about the viability, T/C [17] of the same molecule?
Answer: 94.5%

Question: And the viability, T/C [18]?
Answer: 41%

Question: What about the viability, T/C [19] of the same molecule?
Answer: 95.2%

Question: What about the viability, T/C [20] of the same molecule?
Answer: 88.2%

Question: What about the viability, T/C [21] of the same molecule?
Answer: 94.7%

Question: And the viability, T/C [22]?
Answer: 84.2%

Question: And the viability, T/C [23]?
Answer: 90%

Question: And the viability, T/C [24]?
Answer: 26.5%

Question: And the viability, T/C [25]?
Answer: 80.3%

Question: What about the viability, T/C [26] of the same molecule?
Answer: 81.4%

Question: What about the viability, T/C [27] of the same molecule?
Answer: 79.1%

Question: What about the viability, T/C [28] of the same molecule?
Answer: 96.7%

Question: What about the viability, T/C [29] of the same molecule?
Answer: 86.3%

Question: What about the viability, T/C [30] of the same molecule?
Answer: 29.4%

Question: What about the viability, T/C [31] of the same molecule?
Answer: 70.3%

Question: What about the viability, T/C [32] of the same molecule?
Answer: 62.3%

Question: And the viability, T/C [33]?
Answer: 61.7%

Question: What about the viability, T/C [34] of the same molecule?
Answer: 61.2%

Question: What about the viability, T/C [35] of the same molecule?
Answer: 74.6%

Question: What about the viability, T/C [36] of the same molecule?
Answer: 22%

Question: And the viability, T/C [37]?
Answer: 55.5%

Question: And the viability, T/C [38]?
Answer: 50.7%

Question: What about the viability, T/C [39] of the same molecule?
Answer: 59.3%

Question: What about the viability, T/C [40] of the same molecule?
Answer: 59.8%

Question: And the viability, T/C [41]?
Answer: 73.3%

Question: And the viability, T/C [42]?
Answer: 25.9%

Question: With Cn1nccc1Nc1nccc(-c2ccn(C(CO)c3ccc(Cl)c(F)c3)c(=O)c2)n1 (stereo unspecified) as the molecule, how does the viability, T/C (compound 0.0316 µM) read?
Answer: 98.7% [middle of 4 runs]

Question: And the viability, T/C (compound 0.1 µM)?
Answer: 97% [middle of 4 runs]

Question: What about the viability, T/C (compound 0.316 µM) of the same molecule?
Answer: 112% [middle of 4 runs]

Question: And the viability, T/C (compound 1 µM)?
Answer: 90.8% [middle of 4 runs]

Question: What about the viability, T/C (compound 3.16 µM) of the same molecule?
Answer: 76.5% [middle of 4 runs]

Question: And the viability, T/C (compound 10 µM)?
Answer: 64.7% [middle of 4 runs]

Question: What about the IC50 (curve of compound) of the same molecule?
Answer: > 10 µM

Question: For CC(Cn1ccc(-c2ccc(C#N)c(Cl)c2)n1)NC(=O)c1cc(C(C)O)[nH]n1 (stereo unspecified) + CC(Nc1ccc2c(c1)OCCn1cc(N3C(=O)OCC3C(F)F)nc1-2)C(N)=O, which IC50 [1] is on record?
Answer: > 10 µM

Question: What about the IC50 [2] of the same molecule?
Answer: > 10 µM

Question: What about the IC50 [3] of the same molecule?
Answer: > 10 µM

Question: What about the IC50 [4] of the same molecule?
Answer: > 10 µM

Question: What about the IC50 [5] of the same molecule?
Answer: > 10 µM

Question: What about the IC50 [6] of the same molecule?
Answer: > 10 µM

Question: What about the viability, T/C [7] of the same molecule?
Answer: 86%

Question: And the viability, T/C [8]?
Answer: 108%

Question: What about the viability, T/C [9] of the same molecule?
Answer: 98.5%

Question: And the viability, T/C [10]?
Answer: 112%

Question: What about the viability, T/C [11] of the same molecule?
Answer: 96%

Question: And the viability, T/C [12]?
Answer: 97.4%

Question: What about the viability, T/C [13] of the same molecule?
Answer: 92.6%

Question: What about the viability, T/C [14] of the same molecule?
Answer: 98.4%

Question: What about the viability, T/C [15] of the same molecule?
Answer: 110%

Question: And the viability, T/C [16]?
Answer: 100%

Question: And the viability, T/C [17]?
Answer: 96%

Question: What about the viability, T/C [18] of the same molecule?
Answer: 87.1%

Question: And the viability, T/C [19]?
Answer: 96.8%

Question: And the viability, T/C [20]?
Answer: 101%

Question: And the viability, T/C [21]?
Answer: 89.7%

Question: What about the viability, T/C [22] of the same molecule?
Answer: 93.7%

Question: And the viability, T/C [23]?
Answer: 93.8%

Question: And the viability, T/C [24]?
Answer: 79.2%

Question: And the viability, T/C [25]?
Answer: 78%

Question: What about the viability, T/C [26] of the same molecule?
Answer: 79.4%

Question: What about the viability, T/C [27] of the same molecule?
Answer: 89.1%

Question: And the viability, T/C [28]?
Answer: 82.7%

Question: What about the viability, T/C [29] of the same molecule?
Answer: 97.1%

Question: And the viability, T/C [30]?
Answer: 76.7%

Question: What about the viability, T/C [31] of the same molecule?
Answer: 70.2%

Question: What about the viability, T/C [32] of the same molecule?
Answer: 73.2%

Question: And the viability, T/C [33]?
Answer: 66.7%

Question: What about the viability, T/C [34] of the same molecule?
Answer: 73.5%

Question: What about the viability, T/C [35] of the same molecule?
Answer: 66.7%

Question: And the viability, T/C [36]?
Answer: 72%

Question: What about the viability, T/C [37] of the same molecule?
Answer: 55%

Question: What about the viability, T/C [38] of the same molecule?
Answer: 55.1%

Question: And the viability, T/C [39]?
Answer: 68.9%

Question: And the viability, T/C [40]?
Answer: 63.1%

Question: And the viability, T/C [41]?
Answer: 58%

Question: And the viability, T/C [42]?
Answer: 58.6%

From PubChem BioAssay AID1963965 (Molecular Pharmacology Branch, DTP, NCI, 2024)
